How the values were obtained:
[1] = system: B lymphocytes from patients suffering from chronic lymphoid leukemia (CLL); conditions: for effect on percentage cell survival / cell effect CLL 40 (survival): 40 μM peptide; for effect on percentage cell survival: 4 H and 24 H, FIG. 3; for cell effect CLL 40 (survival): 4 hours of culture, cells not labeled with annexin or propidium iodide; for effect of the peptide on cell mortality, in words (relative to A1 WT IRS): 40 μM, 4 hours, FIG. 9; for action of the peptide on cell survival, in words, cell type not given: Example 6 (CLL cells, control T lymphocytes, Jok cells)
Description: Peripheral blood B lymphocytes taken from patients suffering from CLL and then purified on a Ficoll cushion and placed in culture are incubated in the presence of […] of the peptides described for FIG. 2. The percentage cell survival after 4 hours (gray column) or 24 hours (white column) of culture corresponds to the percentage of cells labeled neither with annexin nor with propidium iodide, evaluated by flow cytometry.
The CLL B lymphocytes were obtained from peripheral blood of 18 different patients suffering from chronic lymphoid leukemia. […] The samples were taken in the Brest hospital center, in the hematology department. The blood samples were taken after informing the patients and obtaining their informed consent.
The lymphocytes, mononuclear cells, were isolated from the heparinized peripheral blood samples by Ficoll-Hypaque (LSM 1077 lymphocyte, euro-bio) centrifugation. The red blood cells were lyzed by incubation for 10 min in VersaLyse Lysing Solution (Beckman Coulter). The mononuclear cells are obtained after 2 washes in culture medium (RPMI1640, Gibco BRL).
(§1) The cells were cultured in a culture medium composed either of RPMI 1640 (B lymphocytes) or of DMEM (COS7, HCT116, HGT1, 293, HeLa) containing 10% of FCS (fetal calf serum, 1% of penicillin-streptomycin and 1% of glutamine, Gibco BRL). The cells are distributed in a 24-well plate and cultured at 37° C. in a humid atmosphere under 5% CO2.
(§2) 400 μl of cell suspension (1×10^6 cells/ml) per well were treated for 4 h or 24 h with various concentrations of peptides. The test for activity of the peptides in the presence of emetine (FIG. 6) was carried out by preincubating the cells with 100 μM of emetine for one hour before the addition of peptide.
(§3) After the cells have been washed with PBS, they were analyzed using the Annexin V-FITC IP system according to the supplier's recommendations (Beckman Coulter).
The cells taken from patients suffering from chronic lymphoid leukemia were purified on a Ficoll cushion. […] The cells were placed in culture in RPMI medium in the presence of 10% FCS (fetal calf serum). The peptides were added directly to the culture medium. These peptides comprise the IRS sequence (the amino acid sequence of which is RYIRS) which is known to allow the penetration of peptides into B lymphocytes in culture (Dong et al., 2005). […] The cells which survive the treatment are those which are labeled neither with annexin nor with propidium iodide.

[2] = system: Jok cells (cell line derived from B lymphocytes); experiment: Cell survival of Jok cells, annexin/propidium iodide flow cytometry; format: cell-based, human; conditions: for cell effect Jok 20 (survival): 20 μM peptide; for cell effect Jok 20 (survival) / cell effect Jok 40 (survival): 4 hours of culture, cells not labeled with annexin or propidium iodide; for cell effect Jok 40 (survival): 40 μM peptide; for effect of the peptide on cell mortality, in words (relative to A1 WT IRS): 4 hours, FIG. 9
Description: The cells are treated as indicated for FIG. 7, with the CLL cells, control T lymphocytes and Jok lymphocytes, which are incubated with the A1 WT IRS peptide and derivatives thereof described in table 1. The Jok cells were incubated either with 20 μM (JOK 20) or with 40 μM (JOK 40) of each of the peptides. In the interests of simplifying the legend, the A1 WT IRS peptide is referred to as “WT”. Likewise, the derivatives thereof are referred to by the name of the mutations (A1 K3I IRS is referred to as “K3I”, for example).
as §1, §2, §3
The peptides were tested on B lymphocytes from patients suffering from chronic lymphoid leukemia, control T lymphocytes, or Jok cells (cell line derived from B lymphocytes). The experiment was repeated three times for each type of cell tested.

[3] = system: cap-dependent translation (eIF4E-dependent); experiment: Effect of the peptides on translation of capped luciferase mRNA in rabbit reticulocyte lysate; format: biochemical; conditions: 50 μM peptide, compared with DMSO = 100%, FIG. 2
Description: The peptides having the IRS motif and the sequences of 4EBPlike type (A1WT, BPSgWT, and BP2WT) or the mutant sequences of 4EPBlike type (A1YALA, BPSgYALA, BP2YALA) are incubated in rabbit reticulocyte lysate containing capped mRNAs encoding luciferase, an enzyme of which the activity can be easily assayed. The translational activity is directly proportional to the activity of the luciferase produced. The translational activity in the presence of peptide is compared with that obtained during the addition of an equivalent volume of DMSO, considered to be 100%.
The peptides were produced, purified by HPLC (purity>95%), and freeze-dried by Thermofisher Scientific. The peptides were then dissolved at 10 mM in DMSO.
The capped mRNAs encoding Renilla luciferase (Luc R) were produced by the T7 Message Machine Kit system (Ambion) from the pGb-Eg2-410Δ2-hxG-A65 plasmid linearized with EcoRV (Legagneux V, Omilli F, Osborne HB (1995) Substrate-specific regulation of RNA deadenylation in Xenopus embryo and activated egg extracts. RNA 1: 1001-1008).
The Luc R mRNAs were translated for one hour at 30° C. in rabbit reticulocyte lysate (Flexi Rabbit Reticulocyte Lysate System, Promega) in the presence of 50 μM of peptide. The luciferase activity was determined using the Renilla luciferase assay (Promega) on the Tristar LB941 luminometer (Berthold).
A capped mRNA (having a cap at the 5′ end) encoding luciferase, a protein which can be easily assayed by measuring its activity, was translated in the presence of these various peptides in rabbit reticulocyte lysate (FIG. 2). The luciferase activity measured is directly proportional to the amount of luciferase protein produced and therefore to the cap-dependent translational activity. Since the peptides are dissolved in DMSO, it was important to test the effect of DMSO on the translation. […] The translational activity in the presence of peptide was compared with that obtained when an equal volume of DMSO is added, considered to be equal to 100%.

[4] = system: control T lymphocytes (patients suffering from hemochromatosis); experiment: Cell survival of control T lymphocytes, annexin/propidium iodide flow cytometry; format: cell-based, human; conditions: 40 μM, 4 hours; FIG. 9
[5] = system: control T lymphocytes (patients suffering from hemochromatosis); experiment: as above; format: cell-based, human; conditions: 40 μM peptide, 4 hours of culture, cells not labeled with annexin or propidium iodide
Description: FIG. 7: Activity of the A1WT peptide on cells of lymphocytic, lymphoid, gastric, colonic or renal origin The cells are prepared and placed in culture (see Materials and Methods) and then incubated for 4 H with the A1WT or A1 YALA peptide. The percentage cell survival corresponds to the percentage of cells labeled neither with annexin nor with propidium iodide, evaluated by flow cytometry. The names of the pathological conditions from which the patients from whom the samples are taken are suffering are indicated under the figure. The control T (L.T.) and B (L.B.) lymphocytes are taken from patients suffering from a disease not related to a lymphocytic pathological condition (hemochromatosis).
The control B lymphocytes and T lymphocytes originate from peripheral blood samples from patients suffering from hemochromatosis, provided by the CTS transfusion center in Brest. The B and T lymphocytes were isolated using the Rosett-Sep kit (Stemcell Technologies) according to the supplier's recommendations.
as §1, §2, §3

[6] = concentration not given (20 or 40 μM)

Sequence | effect on percentage cell survival [1] | cell effect CLL 40 (survival) [1] | effect of the peptide on cell mortality, in words (relative to A1 WT IRS) [1] | action of the peptide on cell survival, in words, cell type not given [1] | cell effect Jok 20 (survival) [2] | cell effect Jok 40 (survival) [2] | effect of the peptide on cell mortality, in words (relative to A1 WT IRS) [2, 6] | inhibition of translation (luciferase activity) [3] | inhibition of translation (luciferase activity) ([3]; listed as BP2) | effect of the peptide on cell mortality, in words (relative to A1 WT IRS) [4] | cell effect LT 40 (survival) [5] | effect of the peptide on cell mortality, in words (relative to A1 WT IRS) ([2]; 20 μM) | effect of the peptide on cell mortality, in words (relative to A1 WT IRS) ([2]; 40 μM)
RIIYDRKFLLDRRYIRS [BP2 WT IRS, reference compound] | the percentage survival did not decrease | − (−: survival >50%) | has no effect | has no effect on cell survival | − (−: survival >50%) | − (−: survival >50%) | has no effect | strong inhibition of the translation | effectively inhibits eIF4E-dependent translation | – | – | – | –
RIIADRKFAADRRYIRS [BP2 YALA IRS, YALA mutant control of BP2 WT IRS] | – | – | – | – | – | – | – | does not cause any inhibition of the translation | – | – | – | – | –
KKKYGRDFLLRFRYIRS [A1 R1, 2K IRS] | – | + (+: survival <25%) | decreases the effect | – | +/− (+/−: survival between 25 and 50%) | + (+: survival <25%) | – | – | – | decreases the effect | +/− (+/−: survival between 25 and 50%) | decreases the effect | the same effect as the A1 WT IRS peptide
RRKAGRDFAARFRYIRS [A1 YALA IRS, reference compound] | has no effect | − (−: survival >50%) | – | has no effect | − (−: survival >50%) | − (−: survival >50%) | – | does not inhibit the translation | – | – | − (−: survival >50%) | – | –
RRKYARDFLLRFRYIRS [A1 G5A-IRS] | – | + (+: survival <25%) | slightly increases the effect | – | + (+: survival <25%) | + (+: survival <25%) | slightly increases the effect | – | – | slightly increases the effect | + (+: survival <25%) | – | –
RRKYGRDFLLRKRYIRS [A1 F12K IRS] | – | − (−: survival >50%) | completely abolishes the action | – | − (−: survival >50%) | − (−: survival >50%) | completely abolishes the action | – | – | completely abolishes the action | − (−: survival >50%) | – | –
